Assay results as given in a compilation of properties of binary mixtures (doi:10.1080/00319104.2019.1566461).

Assay: xn = mol fraction of the nth substance listed
Details: 101.3 kPa

CCOS(=O)(=O)[O-].CC[n+]1ccn(C)c1 + CC(C)C(=O)O
x2 = 0
Details | speed of sound [m/s]
293.15 K | 1686.8
298.15 K | 1671.4
303.15 K | 1661.9
308.15 K | 1649.6

CC(C)C(=O)O + CCOS(=O)(=O)[O-].CC[n+]1ccn(C)c1
speed of sound [m/s]
Details | 288.15 K | 293.15 K | 298.15 K | 303.15 K | 308.15 K | 313.15 K
x1 = 0.1122 | 1665.5 | 1652.8 | 1640 | 1627.4 | 1614.9 | 1602.6
x1 = 0.2295 | – | – | 1606.3 | 1593.5 | 1580.8 | 1568.2
x1 = 0.3297 | 1592.5 | – | 1566.2 | 1553.2 | 1540.2 | 1527.4
x1 = 0.4305 | 1554.5 | 1541.2 | – | 1514.4 | 1501.1 | 1488.1
x1 = 0.5464 | 1501.1 | 1487.4 | – | 1459.8 | 1446.2 | 1432.7
x1 = 0.6412 | – | 1439.4 | 1425.1 | 1411 | 1396.9 | 1383.1
x1 = 0.728 | 1398.5 | 1383.9 | 1369.1 | 1354.4 | 1339.9 | 1325.5
x1 = 0.8127 | 1331.5 | – | – | 1284.8 | 1269 | 1253.8
x1 = 0.9073 | 1256.7 | 1240 | 1222.8 | 1205.6 | 1188.9 | 1172.5
x1 = 0.9336 | 1233.1 | 1213.2 | – | – | 1162.5 | –
x1 = 0.9576 | 1200.2 | – | 1158.9 | 1141 | 1122.2 | 1100.7
x1 = 1 | 1159 | 1140.3 | 1121.2 | – | 1083.6 | 1065.1

CCOS(=O)(=O)[O-].CC[n+]1ccn(C)c1 + CCCCC(=O)O
x2 = 0
Details | speed of sound [m/s]
288.15 K | 1696.4
293.15 K | 1686.8
298.15 K | 1671.4
303.15 K | 1661.9
308.15 K | 1649.6
313.15 K | 1637.5

CCCCC(=O)O + CCOS(=O)(=O)[O-].CC[n+]1ccn(C)c1
speed of sound [m/s]
Details | 288.15 K | 293.15 K | 298.15 K | 303.15 K | 308.15 K | 313.15 K
x1 = 0.0974 | – | 1655.2 | 1642.4 | 1629.8 | 1617.2 | 1604.9
x1 = 0.1949 | 1636.9 | – | 1611 | 1598.1 | 1585.4 | 1572.9
x1 = 0.2975 | 1598.8 | – | 1572.4 | – | 1546.4 | –
x1 = 0.3947 | – | – | 1538.1 | 1524.8 | – | 1498.6
x1 = 0.495 | 1525 | 1511.5 | 1497.7 | 1484.1 | 1470.7 | 1457.3
x1 = 0.595 | – | – | 1455.3 | 1441.2 | – | 1413.8
x1 = 0.6941 | 1435.7 | 1421.3 | 1406.7 | 1392.3 | 1377.9 | 1363.7
x1 = 0.7905 | 1383 | 1367.9 | 1352.6 | 1337.5 | 1322.4 | 1307.5
x1 = 0.8965 | 1315 | 1298.6 | 1282 | 1265.6 | 1249.4 | 1233.2
x1 = 0.926 | 1295.1 | 1278.3 | 1261.3 | 1244.4 | 1227.7 | 1211.1
x1 = 0.9529 | 1277.5 | – | 1242.8 | – | 1208.3 | 1191.3
x1 = 1 | 1253.7 | 1235.8 | – | 1199.5 | – | 1163.9
